The values that follow come from patent publication US8895695B2, “Template-fixed beta-hairpin peptidomimetics with CXCR4 antagonizing activity” (priority 2003, dated 2014).

As a reminder, the GI50 is the concentration at which growth is held to half of that of the control. Low readings indicate greater sensitivity of the cells, high ones lower sensitivity of the cells. One may read the IC50 as the midpoint of a concentration-inhibition curve.

Data set [1] concerns human red blood cells (hRBC). The data set is described as follows: Hemolysis. It is filed as cell-based. The method, then:
The peptides were tested for their hemolytic activity against human red blood cells (hRBC). Fresh hRBC were washed three times with phosphate buffered saline (PBS) by centrifugation for 10 min at 2000×g. Peptides at a concentration of 100 μM were incubated with 20% v/v hRBC for 1 hour at 37° C. The final erythrocyte concentration was approximately 0.9×10^9 cells per ml. A value of 0% resp. 100% cell lysis was determined by incubation of the hRBC in the presence of PBS alone and respectively 0.1% Triton X-100 in H2O. The samples were centrifuged and the supernatant was 20-fold diluted in PBS buffer and the optical density (OD) of the sample at […] was measured. The 100% lyses value (OD540H2O) gave an OD540 of approximately 1.3-1.8. Percent hemolysis was calculated as follows: (OD540peptide/OD540H2O)×100%.

The next data set in a line: in vitro. The settings on record: human.
The target of the next data set is CXCR4 (Homo sapiens, UniProt P61073). In words: Ca2+-assay method 2 (Flexstation, SDF-1 induced calcium mobilization). It counts as cell-based. The arrangement: expressed in transfected cells; host or cells: mouse pre-B cell line 300-19. Particulars: method 2 (Ex. 54-160), mouse pre-B cell line 300-19 with human CXCR4, 10 nM SDF-1; read-out: IC50 (nM) Ca^2+ assay. The method, then: 2.2. Ca^2+-Assay: CXCR4-Antagonizing Activity of the Peptides.
Chain of CXCR4 (P61073 whole entry): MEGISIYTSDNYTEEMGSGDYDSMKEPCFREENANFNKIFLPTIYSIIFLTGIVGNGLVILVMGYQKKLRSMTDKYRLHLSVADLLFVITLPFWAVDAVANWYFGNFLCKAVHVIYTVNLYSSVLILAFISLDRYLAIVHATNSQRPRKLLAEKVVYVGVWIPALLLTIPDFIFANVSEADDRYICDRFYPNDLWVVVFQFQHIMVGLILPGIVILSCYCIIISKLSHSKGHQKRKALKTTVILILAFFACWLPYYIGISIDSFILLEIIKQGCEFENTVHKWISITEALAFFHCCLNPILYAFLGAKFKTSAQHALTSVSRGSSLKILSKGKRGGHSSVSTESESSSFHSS
The cells were batch loaded with the Calcium 3 Assay kit (Molecular Devices) in assay buffer (Hanks Balanced salt solution, HBSS, 20 mM HEPES, pH 7.4, 0.1% BSA) for 1 h at room temperature and then 200,000 labeled cells were dispensed into black 96 well assays plates (Costar No. 3603). A 20-fold concentrated solution of peptide in assay buffer was added to the cells and the whole plate was centrifuged to settle the cells to the bottom of the wells. Calcium mobilization induced by 10 nM stromal-derived factor-1 (SDF-1) was measured in the Flexstation 384 (excitation, 485 nM; emission, 525 nM) for 90 seconds. A maximal change in fluorescence response above baseline was used to calculate antagonist activity. The data for dose response curves (antagonist concentration versus % maximum response) were fitted to a four parameter logistic equation using SoftmaxPro 4.6 (Molecular Devices), from which IC50% values were calculated.
(In general: Calcium assays in cells follow changes in intracellular calcium, usually with a dye or a luminescent sensor.)

Structures are written as SMILES. Bridge positions count the residues as written; N and C are the ends. Square brackets hold non-standard residues; d marks the D form. Peptide text beside a SMILES is read from it. 2Nal = N[C@@H](Cc1ccc2ccccc2c1)C(=O)O; Cit = NC(=O)NCCC[C@H](N)C(=O)O
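Wherever GI50 is given: MTT reduction read as absorbance at 595 nm, blank-corrected and expressed as percent growth relative to the time-zero cell reading, triplicate wells per concentration.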

`N=C(N)NCCC[C@@H]1NC(=O)[C@@H]2CSSC[C@H](NC(=O)[C@H](Cc3ccc4ccccc4c3)NC(=O)[C@H](CCCNC(=N)N)NC(=O)[C@H](Cc3ccc(O)cc3)NC(=O)[C@H]3CCCN3C(=O)CNC1=O)C(=O)N[C@@H](Cc1ccc(O)cc1)C(=O)N[C@@H](CCC(N)=O)C(=O)N[C@@H](CCCCN)C(=O)N1CCC[C@@H]1C(=O)N1CCC[C@H]1C(=O)N[C@@H](Cc1ccc(O)cc1)C(=O)N[C@@H](CCCNC(=N)N)C(=O)N[C@@H](CCCNC(N)=O)C(=O)N2` [Ex. 54] (cyclo(YR[Cit]CRG[dP]YR[2Nal]CYQK[dP]P); disulfide 4-11) came in with a Hemolysis at 100 μM in data set [1] of 0%. This compound also had a GI50 at 48 h in “in vitro” of 54 µM. Also, the IC50 at CXCR4 was 6.9 nM.

In turn, `N=C(N)NCCC[C@@H]1NC(=O)[C@@H]2CSSC[C@H](NC(=O)[C@H](Cc3ccc4ccccc4c3)NC(=O)[C@H](CCCNC(=N)N)NC(=O)[C@H](Cc3c[nH]c4ccccc34)NC(=O)[C@H]3CCCN3C(=O)CNC1=O)C(=O)N[C@@H](Cc1ccc(O)cc1)C(=O)N[C@@H](CCC(N)=O)C(=O)N[C@@H](CCCCN)C(=O)N1CCC[C@@H]1C(=O)N1CCC[C@H]1C(=O)N[C@@H](Cc1ccc(O)cc1)C(=O)N[C@@H](CCCNC(=N)N)C(=O)N[C@@H](CCCNC(N)=O)C(=O)N2` [Ex. 55] (cyclo(YR[Cit]CRG[dP]WR[2Nal]CYQK[dP]P); disulfide 4-11) registered a Hemolysis at 100 μM in data set [1] of 0.1%. For the same compound, in “in vitro”, halving of growth (GI50 at 48 h) required 43 µM. In addition, the IC50 at CXCR4 stood at 6.3 nM.

Regarding `N=C(N)NCCC[C@@H]1NC(=O)[C@@H]2CSSC[C@H](NC(=O)[C@H](Cc3ccc4ccccc4c3)NC(=O)[C@H](CCCNC(=N)N)NC(=O)[C@H](CCCNC(=N)N)NC(=O)[C@H]3CCCN3C(=O)CNC1=O)C(=O)N[C@@H](Cc1ccc(O)cc1)C(=O)N[C@@H](Cc1c[nH]cn1)C(=O)N[C@@H](CCCCN)C(=O)N1CCC[C@@H]1C(=O)N1CCC[C@H]1C(=O)N[C@@H](Cc1ccc(O)cc1)C(=O)N[C@@H](CCCNC(=N)N)C(=O)N[C@@H](CCCNC(N)=O)C(=O)N2` [Ex. 58] (cyclo(YR[Cit]CRG[dP]RR[2Nal]CYHK[dP]P); disulfide 4-11), the Hemolysis at 100 μM in data set [1] came to 0%. This compound gave a GI50 at 48 h in “in vitro” of 18 µM. On CXCR4, the IC50 was 10.5 nM.

In data set [1], `N=C(N)NCCC[C@@H]1NC(=O)[C@@H]2CSSC[C@H](NC(=O)[C@H](Cc3ccc4ccccc4c3)NC(=O)[C@H](CCCNC(=N)N)NC(=O)[C@H](CCCNC(=N)N)NC(=O)[C@H]3CCCN3C(=O)CNC1=O)C(=O)N[C@@H](Cc1ccc(O)cc1)C(=O)N[C@@H](Cc1ccc(O)cc1)C(=O)N[C@@H](CCCCN)C(=O)N1CCC[C@@H]1C(=O)N1CCC[C@H]1C(=O)N[C@@H](Cc1ccc(O)cc1)C(=O)N[C@@H](CCCNC(=N)N)C(=O)N[C@@H](CCCNC(N)=O)C(=O)N2` [Ex. 59] (cyclo(YR[Cit]CRG[dP]RR[2Nal]CYYK[dP]P); disulfide 4-11) yielded a Hemolysis at 100 μM of 0.1%. Moreover, in “in vitro”, it took 33 µM to inhibit growth by half (GI50 at 48 h). Moreover, the IC50 on CXCR4 worked out at 7.8 nM.

Regarding `N=C(N)NCCC[C@@H]1NC(=O)[C@@H]2CSSC[C@H](NC(=O)[C@H](Cc3ccc4ccccc4c3)NC(=O)[C@H](CCCNC(=N)N)NC(=O)[C@H](CCCNC(=N)N)NC(=O)[C@H]3CCCN3C(=O)CNC1=O)C(=O)N[C@@H](Cc1ccc(O)cc1)C(=O)N[C@@H](CCC(N)=O)C(=O)N[C@@H](CCCCN)C(=O)N1CCC[C@@H]1C(=O)N1CCC[C@H]1C(=O)N[C@@H](CCC(N)=O)C(=O)N[C@@H](CCCNC(=N)N)C(=O)N[C@@H](CCCNC(N)=O)C(=O)N2` [Ex. 62] (cyclo(QR[Cit]CRG[dP]RR[2Nal]CYQK[dP]P); disulfide 4-11), the Hemolysis at 100 μM in data set [1] is 0.1%. Also, in “in vitro”, the GI50 at 48 h was 65 µM. For the same compound, the concentration for half-maximal inhibition (IC50) at CXCR4 came out at 1.8 nM.

The compound `N=C(N)NCCC[C@@H]1NC(=O)[C@@H]2CSSC[C@H](NC(=O)[C@H](Cc3ccc4ccccc4c3)NC(=O)[C@H](CCCNC(=N)N)NC(=O)[C@H](CCCNC(=N)N)NC(=O)[C@H]3CCCN3C(=O)CNC1=O)C(=O)N[C@@H](Cc1ccc(O)cc1)C(=O)N[C@@H](CCC(N)=O)C(=O)N[C@@H](CCCCN)C(=O)N1CCC[C@@H]1C(=O)N1CCC[C@H]1C(=O)N[C@@H](Cc1c[nH]cn1)C(=O)N[C@@H](CCCNC(=N)N)C(=O)N[C@@H](CCCNC(N)=O)C(=O)N2` [Ex. 64] (cyclo(HR[Cit]CRG[dP]RR[2Nal]CYQK[dP]P); disulfide 4-11) had a Hemolysis at 100 μM in data set [1] of 0.3%. The GI50 at 48 h in “in vitro” was found to be 66 µM. Moreover, on CXCR4, the IC50 turned out to be 3.3 nM.

Compound `CC[C@H](C)[C@@H]1NC(=O)[C@@H]2CCCN2C(=O)[C@H]2CCCN2C(=O)[C@H](CCCCN)NC(=O)[C@H](CCC(N)=O)NC(=O)[C@H](Cc2ccc(O)cc2)NC(=O)[C@@H]2CSSC[C@H](NC(=O)[C@H](CCCNC(N)=O)NC(=O)[C@H](CCCNC(=N)N)NC1=O)C(=O)N[C@@H](CCCNC(=N)N)C(=O)NCC(=O)N1CCC[C@@H]1C(=O)N[C@@H](CCCNC(=N)N)C(=O)N[C@@H](CCCNC(=N)N)C(=O)N[C@@H](Cc1ccc3ccccc3c1)C(=O)N2` [Ex. 65] (cyclo(IR[Cit]CRG[dP]RR[2Nal]CYQK[dP]P); disulfide 4-11) gave a Hemolysis at 100 μM in data set [1] of 0.2%. The GI50 at 48 h in the data set “in vitro” was 65 µM. Besides, the IC50 on CXCR4 came to 3.9 nM.

`N=C(N)NCCC[C@@H]1NC(=O)[C@@H]2CSSC[C@H](NC(=O)[C@H](Cc3ccc4ccccc4c3)NC(=O)[C@H](CCCNC(=N)N)NC(=O)[C@H](CCCNC(=N)N)NC(=O)[C@H]3CCCN3C(=O)CNC1=O)C(=O)N[C@@H](Cc1ccc(O)cc1)C(=O)N[C@@H](CCC(N)=O)C(=O)N[C@@H](CCCCN)C(=O)N1CCC[C@@H]1C(=O)N1CCC[C@H]1C(=O)N[C@@H](Cc1c[nH]c3ccccc13)C(=O)N[C@@H](CCCNC(=N)N)C(=O)N[C@@H](CCCNC(N)=O)C(=O)N2` [Ex. 66] (cyclo(WR[Cit]CRG[dP]RR[2Nal]CYQK[dP]P); disulfide 4-11): the Hemolysis at 100 μM in data set [1] came out at 0%. For the same compound, it took 46 µM to inhibit growth in the data set “in vitro” by half (GI50 at 48 h). At CXCR4, the half-inhibitory concentration (IC50) is 3.8 nM.

`C[C@@H](O)[C@@H]1NC(=O)[C@@H]2CCCN2C(=O)[C@H]2CCCN2C(=O)[C@H](CCCCN)NC(=O)[C@H](CCC(N)=O)NC(=O)[C@H](Cc2ccc(O)cc2)NC(=O)[C@@H]2CSSC[C@H](NC(=O)[C@H](CCCNC(N)=O)NC(=O)[C@H](CCCNC(=N)N)NC1=O)C(=O)N[C@@H](CCCNC(=N)N)C(=O)NCC(=O)N1CCC[C@@H]1C(=O)N[C@@H](CCCNC(=N)N)C(=O)N[C@@H](CCCNC(=N)N)C(=O)N[C@@H](Cc1ccc3ccccc3c1)C(=O)N2` [Ex. 67] (cyclo(TR[Cit]CRG[dP]RR[2Nal]CYQK[dP]P); disulfide 4-11) returned a Hemolysis at 100 μM in data set [1] of 0.2%. Further, the GI50 at 48 h in “in vitro” is 49 µM. On CXCR4, the IC50 was 2.4 nM.

`C[C@@H]1NC(=O)[C@H](CCCNC(=N)N)NC(=O)[C@@H]2CSSC[C@H](NC(=O)[C@H](Cc3c[nH]c4ccccc34)NC(=O)[C@H](CCCNC(=N)N)NC(=O)[C@H](CCCNC(=N)N)NC(=O)[C@H]3CCCN3C1=O)C(=O)N[C@@H](Cc1ccc(O)cc1)C(=O)N[C@@H](CCCNC(N)=O)C(=O)N[C@@H](CCCCN)C(=O)N1CCC[C@@H]1C(=O)N1CCC[C@H]1C(=O)N[C@@H](Cc1ccc(O)cc1)C(=O)N[C@@H](CCCNC(=N)N)C(=O)N[C@@H](CCCNC(N)=O)C(=O)N2` [Ex. 143] (cyclo(YR[Cit]CRA[dP]RRWCY[Cit]K[dP]P); disulfide 4-11) registered a GI50 at 48 h in “in vitro” of 46 µM. Also, the IC50 on CXCR4 turned out to be 0.9 nM.
